“Also recorded” adds a separate entry of the source. Where two headings read alike, the source gives them in different places.
Columns and labels:
in vivo = details: male, cynomolgus monkey
Procedure: (§2) Pharmacokinetic Analysis of the Compound 36, Compound 121, Compound 214, and Orforglipron in Cynomolgus Monkeys
(§3) Non naïve male cynomolgus monkeys (n=3 monkeys/group) were fasted overnight and fed 4 hours post dose. Compounds of the present application were formulated in 10% polyethylene glycol 400/10% propylene glycol/80% glycine buffer (100 mM glycine, 64 mM NaOH, pH 10).
(§4) The compound was administered by i.v. infusion for 30 minutes at 0.12 mg/kg (dose volume 1 mL/kg at a speed of 2 mL/kg/h) or orally doses of 0.36 mg/kg. Blood samples were collected pre-dose and 0.25, 0.5 (just before the infusion is stopped), 0.75, 1, 1.5, 2.5, 4, 8, 16, 24 hr post dose for i.v. administration group. Blood samples were also collected pre-dose, 0.5, 1, 2, 3, 4, 8, 16 and 24 hr after administration in orally dosing group.

[1] = cynomolgus monkey, in vivo; for Oral F: male
Procedure: as §2, §3, §4

[2] = Pharmacokinetic analysis in male SD rats; format: in vivo; details: for Oral F: 5.0 mg/kg po vs 1.0 mg/kg iv; for AUC(0-inf) / clearance / half-life / Vd / Cmax / Tmax: Sprague-Dawley (SD), rat, plasma; for Vd: read-out: Vdss; for exposure compared with Orforglipron: same doses (iv 1 mg/kg and po 5 mg/kg)
Procedure: The rats have free access to food and water. Blood samples were collected pre-dose and 0.083, 0.25, 0.5, 1, 2, 4, 8, 24 hours post dose for i.v. administration group. Blood samples were also collected pre-dose and 0.25, 0.5, 1, 2, 4, 8, and 24 hours after administration in orally dosing group.

human GLP-1R = target: T1, human GLP-1R (Homo sapiens, UniProt P43220); experiment: GLP-1R cAMP assay (Example B1a, HTRF, 30 min at room temperature); format: cell-based; details: for EC50 Ratio: potency ratio of stereoisomer pair (less potent / more potent isomer)
T1 construct: host or cells: HEK293
Summary of the method: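 Competitive HTRF read-out of cAMP after 30 min room-temperature stimulation, BETP absent, of human GLP-1R-HEK293 cells (1,000/well) in HEPES buffer with 500 μM IBMX and 0.1% BSA. Activation normalised to GLP-1(7-37) positive control. EC50 from 4-parameter non-linear regression.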

[3] = test system: islets from a non-diabetic donor; experiment: Glucose-stimulated insulin secretion (GSIS) in non-diabetic donor islets cultured ex vivo; format: cell-based; details: compared with orforglipron or DMSO
Procedure: Donor islets cultured ex vivo were assayed for GSIS in the presence of compound 36 (cpd 36), orforglipron or DMSO. Basal insulin secretion, stimulated insulin secretion and secretion index were measured.
Donor islets cultured ex vivo were assayed for GSIS in the presence of compound 214, orforglipron or DMSO. Basal insulin secretion, stimulated insulin secretion and secretion index were measured.

[4] = test system: Type 2 diabetic donor islets; experiment: Glucose-stimulated insulin secretion (GSIS) in Type 2 diabetic donor islets cultured ex vivo; format: cell-based; details: islets cultured ex vivo for 8 days (FIG. 1A) or 12 days (FIG. 1B); compared with orforglipron or DMSO
Procedure: Islets from a Type 2 diabetic donor were cultured ex vivo for 8 days (FIG. 1A) or 12 days (FIG. 1B) were assayed for GSIS in the presence of compound 36 (cpd 36), orforglipron or DMSO. Basal insulin secretion, stimulated insulin secretion and secretion index were measured.

[5] = test system: ex-vivo cultured islets from a healthy donor; experiment: Glucose-Stimulated Insulin Secretion (GSIS) assay, islets from a healthy donor; format: cell-based; details: compared to DMSO, FIG. 2
Procedure: (§1) Glucose-Stimulated Insulin Secretion (GSIS) Assay
Purified islets from healthy or Type 2 diabetic donors (Prodo Laboratory, Inc., Aliso Viejo, CA) were cultured in PIM(S) media (Prodo) with 8 mM or 11 mM glucose in a 37° C. water-jacketed incubator with 5% CO2. The GSIS assay followed published procedure (Zhu et al. 2015; Ho et al. 2023). Briefly, islets were conditioned in Krebs-Ringer bicarbonate buffer (KRB, 111 mM NaCl, 4.8 mM KCl, 25 mM NaHCO3, 2.3 mM CaCl2, 1.2 mM MgSO4, 0.15 mM Na2HPO4, 1.2 mM KH2PO4, 10 mM HEPES, 0.2% BSA) containing 2.8 mM glucose for 2 hours with 0.05% DMSO, compound 36 or orforglipron. Size-matched islets were used for each test condition. Islets were washed with KRB once and incubated in fresh KRB containing 2.8 mM glucose with 0.05% DMSO or corresponding compound for one hour to measure the basal insulin secretion in 2.8 mM glucose. Glucose concentration was increased to 11 mM and islets stimulated for one hour in the presence of 0.05% DMSO or corresponding compound to measure stimulated insulin secretion. Supernatants were harvested and insulin secreted under basal and glucose stimulated conditions were quantified using an ELISA kit (ALPCO, Salem, NH). Islets were lysed and genomic DNA was extracted using silicon spin column (Qiagen, Venlo, Netherlands). Insulin secretion was normalized to total genomic DNA. […]

[6] = test system: ex-vivo cultured islets from a T2D donor; experiment: Glucose-Stimulated Insulin Secretion (GSIS) assay, islets from a T2D donor; format: cell-based
Procedure: as §1
Purified islets from healthy or Type 2 diabetic donors (Prodo Laboratory, Inc., Aliso Viejo, CA) were cultured in PIM(S) media (Prodo) with 8 mM or 11 mM glucose in a 37° C. water-jacketed incubator with 5% CO2. The GSIS assay followed published procedure (Zhu et al. 2015; Ho et al. 2023). Briefly, islets were conditioned in Krebs-Ringer bicarbonate buffer (KRB, 111 mM NaCl, 4.8 mM KCl, 25 mM NaHCO3, 2.3 mM CaCl2, 1.2 mM MgSO4, 0.15 mM Na2HPO4, 1.2 mM KH2PO4, 10 mM HEPES, 0.2% BSA) containing 2.8 mM glucose for 2 hours with 0.05% DMSO, compound 36 or orforglipron. Size-matched islets were used for each test condition. Islets were washed with KRB once and incubated in fresh KRB containing 2.8 mM glucose with 0.05% DMSO or corresponding compound for one hour to measure the basal insulin secretion in 2.8 mM glucose. Glucose concentration was increased to 11 mM and islets stimulated for one hour in the presence of 0.05% DMSO or corresponding compound to measure stimulated insulin secretion. Supernatants were harvested and insulin secreted under basal and glucose stimulated conditions were quantified using an ELISA kit (ALPCO, Salem, NH). Islets were lysed and genomic DNA was extracted using silicon spin column (Qiagen, Venlo, Netherlands). Insulin secretion was normalized to total genomic DNA.
Insulin secretion index is the ratio of stimulated insulin secretion at 11 mM glucose/basal insulin secretion at 2.8 mM glucose. […] (Ho, K. H., A. Jayathilake, Y. Mahircan, A. Nour, A. B. Osipovich, M. A. Magnuson, G. Gu, and I. Kaverina. 2023. CAMSAP2 localizes to the Golgi in islet beta-cells and facilitates Golgi-ER trafficking, iScience, 26:105938.Zhu X., R. Hu, M. Brissova, R. W. Stein, A. C. Powers, G. Gu, and I. Kaverina. 2015. Microtubules Negatively Regulate Insulin Secretion in Pancreatic beta Cells, Dev Cell, 34:656-68).

[7] = Table 1d, stereoisomer pairs, read-out: EC50
[8] = cAMP accumulation in HEK293 expressing human GLP-1R, no BETP, 30 min room temperature (Method B1a, compounds ID 1-609), Table 1, read-out: EC50
[9] = text to Table 1d, bridge atoms configured into the plane or away from the reader, read-out: potency (EC50)

T1 sequence (P43220 24-463): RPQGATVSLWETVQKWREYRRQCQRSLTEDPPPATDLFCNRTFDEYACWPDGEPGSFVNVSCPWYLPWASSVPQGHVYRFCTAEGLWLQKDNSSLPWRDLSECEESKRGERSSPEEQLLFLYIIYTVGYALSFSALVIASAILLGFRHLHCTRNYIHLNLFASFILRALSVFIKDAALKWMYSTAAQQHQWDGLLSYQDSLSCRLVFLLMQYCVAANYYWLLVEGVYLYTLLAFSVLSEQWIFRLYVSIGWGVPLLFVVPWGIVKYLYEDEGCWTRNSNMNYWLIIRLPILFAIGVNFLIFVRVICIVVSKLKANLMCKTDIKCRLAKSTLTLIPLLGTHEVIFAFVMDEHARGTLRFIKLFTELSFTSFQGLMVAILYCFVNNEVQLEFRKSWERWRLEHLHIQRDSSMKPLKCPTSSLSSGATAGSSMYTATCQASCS

What does the source list for `Cc1cc(-n2nc3c(c2-n2ccn(-c4ccc5c(cnn5C)c4F)c2=O)[C@@H]2CC[C@H](C3)N2C(=O)c2cc3cc([C@H]4CCOC5(CC5)C4)ccc3n2[C@@]2(c3noc(=O)[nH]3)C[C@@H]2C)cc(C)c1F` [Compound 214, 3-((1S,2S)-1-(2-((4S,7R)-3-(3-(4-fluoro-1-methyl-1H-indazol-5-yl)-2-oxo-2,3-dihydro-1H-imidazol-1-yl)-2-(4-fluoro-3,5-dimethylphenyl)-2,4,5,6,7,8-hexahydro-4,7-epiminocyclohepta [c]pyrazole-9-carbonyl)-5-((S)-4-oxaspiro[2.5]octan-7-yl)-1H-indol-1-yl)-2-methylcyclopropyl)-1,2,4-oxadiazol-5 (4H)-one]?
AUC(0-inf) (in vivo; iv, 0.12 mg/kg): 619 ng·h/mL; Vd (in vivo; iv, 0.12 mg/kg): 0.77 L/kg; clearance (in vivo; iv, 0.12 mg/kg): 3.4 mL/min/kg; half-life (in vivo; iv, 0.12 mg/kg): 3.66 h; AUC(0-inf) (in vivo; po, 0.36 mg/kg): 1000 ng·h/mL; Cmax (in vivo; po, 0.36 mg/kg): 149 ng/mL; Tmax (in vivo; po, 0.36 mg/kg): 2 h; half-life (in vivo; po, 0.36 mg/kg): 3.56 h; Oral F [1]: 54.0%; Oral F [2]: 32.6%; AUC(0-inf) ([2]; 1.0 mg/kg iv): 4640 ng·h/mL; clearance ([2]; 1.0 mg/kg iv): 3.68 mL/min/kg; half-life ([2]; 1.0 mg/kg iv): 4.83 h; Vd ([2]; 1.0 mg/kg iv): 1.08 L/kg; AUC(0-inf) ([2]; 5.0 mg/kg po): 7510 ng·h/mL; Cmax ([2]; 5.0 mg/kg po): 640 ng/mL; Tmax ([2]; 5.0 mg/kg po): 2.67 h; half-life ([2]; 5.0 mg/kg po): 5.14 h; exposure compared with Orforglipron [2]: significant higher exposure; EC50 Ratio (human GLP-1R; Table 1d): >13; EC50 (human GLP-1R; [7]): 52.3 nM; EC50 (human GLP-1R; [8]): 52.3 nM; EC50 (human GLP-1R; [9]): < 1000 nM; glucose-stimulated insulin secretion in islets from a non-diabetic donor [3]: increases in glucose-stimulated insulin secretion

With `Cc1cc(-n2nc3c(c2-n2ccn(-c4ccc5c(cnn5C)c4F)c2=O)[C@@H]2COC[C@H](C3)N2C(=O)c2cc3cc([C@H]4CCOC(C)(C)C4)ccc3n2[C@@]2(c3noc(=O)[nH]3)C[C@@H]2C)cc(C)c1F` [Compound 121, 3-((1S,2S)-1-(5-((S)-2,2-dimethyltetrahydro-2H-pyran-4-yl)-2-((4R,8S)-3-(3-(4-fluoro-1-methyl-1H-indazol-5-yl)-2-oxo-2,3-dihydro-1H-imidazol-1-yl)-2-(4-fluoro-3,5-dimethylphenyl)-2,4,5,7,8,9-hexahydro-4,8-epiminooxocino [5,4-c]pyrazole-10-carbonyl)-1H-indol-1-yl)-2-methylcyclopropyl)-1,2,4-oxadiazol-5 (4H)-one] as the molecule, how does the AUC(0-inf) (in vivo; iv, 0.12 mg/kg) read?
The AUC(0-inf) was 182 ng·h/mL.

What about the Vd (in vivo; iv, 0.12 mg/kg) of the same molecule?
Its Vd is 1.66 L/kg.

What about the clearance (in vivo; iv, 0.12 mg/kg) of the same molecule?
The clearance was 11.4 mL/min/kg.

And the half-life (in vivo; iv, 0.12 mg/kg)?
Its half-life is 2.26 h.

What about the AUC(0-inf) (in vivo; po, 0.36 mg/kg) of the same molecule?
The AUC(0-inf) was 121 ng·h/mL.

And the Cmax (in vivo; po, 0.36 mg/kg)?
Its Cmax is 28 ng/mL.

What about the Tmax (in vivo; po, 0.36 mg/kg) of the same molecule?
Its Tmax is 2 h.

What about the half-life (in vivo; po, 0.36 mg/kg) of the same molecule?
Its half-life is 1.94 h.

What about the “Oral F” value [1] of the same molecule?
The value was 22.2%.

What about the “Oral F” value [2] of the same molecule?
Its value is 54.7%.

And the AUC(0-inf) ([2]; 1.0 mg/kg iv)?
Its AUC(0-inf) is 3330 ng·h/mL.

What about the clearance ([2]; 1.0 mg/kg iv) of the same molecule?
Its clearance is 5.02 mL/min/kg.

And the half-life ([2]; 1.0 mg/kg iv)?
The half-life was 3.14 h.

What about the Vd ([2]; 1.0 mg/kg iv) of the same molecule?
The Vd was 1.24 L/kg.

And the AUC(0-inf) ([2]; 5.0 mg/kg po)?
The AUC(0-inf) was 9120 ng·h/mL.

And the Cmax ([2]; 5.0 mg/kg po)?
The Cmax was 923 ng/mL.

What about the Tmax ([2]; 5.0 mg/kg po) of the same molecule?
Its Tmax is 3.33 h.

And the half-life ([2]; 5.0 mg/kg po)?
Its half-life is 3.47 h.

And the “exposure compared with Orforglipron” value [2]?
The value was “significant higher exposure”.

And the “EC50 Ratio” value (human GLP-1R; Table 1d)?
Its value is over 122.

And the EC50 (human GLP-1R; [7])?
Its EC50 is 82 nM.

What about the EC50 (human GLP-1R; [8]) of the same molecule?
The EC50 was 82 nM.

And the EC50 (human GLP-1R; [9])?
The EC50 was under 1000 nM.

Which results are given for `Cc1cc(-n2nc3c(c2-n2ccn(-c4ccc5c(cnn5C)c4F)c2=O)[C@@H]2CC[C@H](C3)N2C(=O)c2cc3cc([C@H]4CCOC(C)(C)C4)ccc3n2[C@@]2(c3noc(=O)[nH]3)C[C@@H]2C)cc(C)c1F` [Compound 36, 3-((1S,2S)-1-(5-((S)-2,2-dimethyltetrahydro-2H-pyran-4-yl)-2-((4S,7R)-3-(3-(4-fluoro-1-methyl-1H-indazol-5-yl)-2-oxo-2,3-dihydro-1H-imidazol-1-yl)-2-(4-fluoro-3,5-dimethylphenyl)-2,4,5,6,7,8-hexahydro-4,7-epiminocyclohepta [c]pyrazole-9-carbonyl)-1H-indol-1-yl)-2-methylcyclopropyl)-1,2,4-oxadiazol-5(4H)-one]?
responsiveness of Type 2 diabetic donor islets to glucose stimulation (GSIS) [4]: increases the responsiveness of Type 2 diabetic donor islets to glucose stimulation; AUC(0-inf) (in vivo; iv, 0.12 mg/kg): 512 ng·h/mL; Vd (in vivo; iv, 0.12 mg/kg): 1.13 L/kg; clearance (in vivo; iv, 0.12 mg/kg): 3.98 mL/min/kg; half-life (in vivo; iv, 0.12 mg/kg): 4.55 h; AUC(0-inf) (in vivo; po, 0.36 mg/kg): 771 ng·h/mL; Cmax (in vivo; po, 0.36 mg/kg): 121 ng/mL; Tmax (in vivo; po, 0.36 mg/kg): 2 h; half-life (in vivo; po, 0.36 mg/kg): 4.22 h; insulin secretion upon glucose stimulation [5]: potentiated islets to secrete more insulin upon glucose stimulation compared to DMSO; oral bioavailability compared with Orforglipron [1]: better oral bioavailability; Oral F [1]: 50.2%; Oral F [2]: 29.6%; AUC(0-inf) ([2]; 1.0 mg/kg iv): 5050 ng·h/mL; clearance ([2]; 1.0 mg/kg iv): 3.33 mL/min/kg; half-life ([2]; 1.0 mg/kg iv): 5.04 h; Vd ([2]; 1.0 mg/kg iv): 1.09 L/kg; AUC(0-inf) ([2]; 5.0 mg/kg po): 7480 ng·h/mL; Cmax ([2]; 5.0 mg/kg po): 610 ng/mL; Tmax ([2]; 5.0 mg/kg po): 3.33 h; half-life ([2]; 5.0 mg/kg po): 4.93 h; exposure compared with Orforglipron [2]: significant higher exposure; EC50 Ratio (human GLP-1R; Table 1d): >94; EC50 (human GLP-1R; [7]): 109 nM; EC50 (human GLP-1R; [8]): 109 nM; EC50 (human GLP-1R; [9]): < 1000 nM; glucose-stimulated insulin secretion in islets from a non-diabetic donor [3]: increases glucose-stimulated insulin secretion; basal insulin secretion ([6]; 2.8 mM glucose, FIG. 1A): decreased; stimulated insulin ([6]; 11 mM glucose, FIG. 1A): improved; glucose-stimulated insulin secretion (GSIS) ([6]; FIG. 1): potentiated GSIS; also recorded: overall relatively better than orforglipron; insulin secretion index ([6]; ratio of stimulated insulin secretion at 11 mM glucose/basal insulin secretion at 2.8 mM glucose, FIG. 1B): improved

From US12617783B2, “Heterocyclic GLP-1R agonists” (BIOMEA FUSION, INC., priority 2024, dated 2026)
